Patent US10537590B2, “Cyclic dinucleotide compounds” (BOEHRINGER INGELHEIM INTERNATIONAL GMBH, priority 2016, dated 2020)
Where a name gives a salt, the structure may show the parent alone.

Columns and labels:
[1] = Mouse PK, plasma concentration after intravenous administration; assay type: in vivo; details: male C57BL/6NRj mouse, 10 μmol/Kg, mean of duplicate experiments
Protocol: The mouse PK of compounds of the invention was determined using the following method:
The compound was dissolved in a solution of physiological NaCl and administered intravenously to male C57BL/6NRj mouse at a dose of 10 μmol/Kg. A 20 μL blood sample was collected at 0.25, 0.5, 0.75, 1 and 2 h by taking ETDA as anticoagulant. Blood plasma was generated by centrifugation and stored at −20° C. The compound concentration was determined by LC-MS/MS.

[2] = molecular target: Human STING (hSTING, residues 155-341, wild-type sequence) (Homo sapiens, UniProt Q86WV6, H232R); experiment: Differential Scanning Fluorimetry (DSF), hSTING Tm shift; assay type: binding; details: 100 uM test compound, 3 uM target protein; for hSTING Tm shift: Sodium Salt
Source text: The dissociation curves were processed in Bio-Rad CFX Manager. • Peak type was set to “negative”.

[3] = molecular target: human STING protein in THP1-Blue ISG cells (Homo sapiens, UniProt Q86WV6, G230A/H232R/R293Q/R71H); experiment: In vitro cytokine induction, THP1-Blue ISG IRF-inducible SEAP reporter assay; details: 24 hours incubation, OD at 620 nm
Chain of human STING protein in THP1-Blue ISG cells (Q86WV6 whole entry R71H/G230A/H232R/R293Q): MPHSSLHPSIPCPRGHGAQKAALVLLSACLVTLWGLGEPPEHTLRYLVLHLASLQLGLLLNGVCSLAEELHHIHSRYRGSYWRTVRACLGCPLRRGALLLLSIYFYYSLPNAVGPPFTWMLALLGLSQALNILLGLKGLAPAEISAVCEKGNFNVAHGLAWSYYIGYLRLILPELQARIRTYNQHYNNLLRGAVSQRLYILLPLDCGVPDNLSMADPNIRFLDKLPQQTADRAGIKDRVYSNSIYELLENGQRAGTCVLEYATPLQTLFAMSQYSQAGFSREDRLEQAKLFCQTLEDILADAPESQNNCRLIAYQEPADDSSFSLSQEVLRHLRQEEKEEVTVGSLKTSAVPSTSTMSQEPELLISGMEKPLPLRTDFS
Protocol: In Vitro Cytokine Induction
Using Invivogen's QUANTI-Blue™ colorimetric enzyme assay and a suitable optical density (OD) reader the activity of SEAP can be detected and quantified.
Measurements of SEAP activity were performed in THP1-Blue ISG cells stably expressing the human STING protein and the IRF-inducible SEAP reporter construct. Cells were cultivated for expansion in RPM11640 medium with 10% fetal calf serum, 50 μg/ml Penicillin-Streptomycin, 100 μg/ml Zeocin, and 100 μg/ml Normocin in a 37°, 95% humidity and 5% CO2 incubator. Assay-ready cells were stored as frozen stocks In preparation for the assay, the cells thawed in Zeocin-/Normocin-free medium and were distributed into the assay plates with a density of 15000 cells/15 μL per well. Compounds were prepared by an 8 or 16 point serial dilution in 50% aqueous DMSO and a final dilution step into medium to ensure a final DMSO concentration of 0.5% in the assay. 5 μL of diluted compounds plus 5 μL medium were added to the plates, followed by a 24 hours incubation at 37° C.
At the day of the assay, 75 μl per well of Quanti-Blue reagent was added to all wells of the plate and the plate was incubated another 30 minutes at 37° C. The OD at 620 nm was measured on the EnVision reader (PerkinElmer).

Chain of Human STING (hSTING, residues 155-341, wild-type sequence) (Q86WV6 155-341 H232R): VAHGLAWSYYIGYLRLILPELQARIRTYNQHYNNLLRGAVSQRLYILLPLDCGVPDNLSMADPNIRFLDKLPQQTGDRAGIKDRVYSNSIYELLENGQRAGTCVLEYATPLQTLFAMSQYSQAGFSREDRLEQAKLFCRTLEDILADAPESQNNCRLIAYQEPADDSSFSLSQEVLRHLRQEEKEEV

Row | SMILES | compound concentration in plasma, T = 0.25 h [1] | compound concentration in plasma, T = 0.5 h [1] | compound concentration in plasma, T = 0.75 h [1] | compound concentration in plasma, T = 1 h [1] | compound concentration in plasma, T = 2 h [1] | ΔTm at 100 µM [2] | EC50 [3] | hSTING Tm shift [2]
1 | Nc1ncnc2c1ncn2[C@@H]1O[C@@H]2COP(=O)(S)O[C@@H]3[C@H](O)[C@@H](COP(=O)(S)O[C@H]2[C@H]1F)O[C@H]3n1cnc2c(=O)[nH]ncc21 (single isomer, unassigned) [Example 2.1, Cyclic (imidazopyridazinon-β-D-ribofuranoside-(2′→5′)-phosphorothioate-2′-F-2′-deoxyadenosine-(3′→5′)-phosphorothioate] | 1970 nM | 699 nM | 401 nM | 241 nM | 78 nM |  |  | 
2 | Nc1ncnc2c1ncn2[C@@H]1O[C@]23CO[C@@H]1[C@@H]2OP(=O)(S)OC[C@H]1O[C@@H](n2cnc4c(=O)[nH]ncc42)[C@H](OP(=O)(S)OC3)[C@@H]1O (single isomer, unassigned) [Example 3.2, Cyclic (imidazopyridazinon-β-D-ribofuranoside-(2′→5′)-phosphorothioate-LNA-adenine-(3′→5′)-phosphorothioate), Sodium Salt] |  |  |  |  |  | 9 °C | 8.5 µM | 
3 | O=c1[nH]ncc2c1ncn2[C@@H]1O[C@@H]2COP(=O)(S)O[C@H]3[C@@H](O)[C@H](n4cnc5cncnc54)O[C@@H]3COP(=O)(S)O[C@@H]1[C@@H]2O (single isomer, unassigned) [Example 4.1, Cyclic (imidazopyridazinon-β-D-ribofuranoside-(2′→5′)-phosphorothioate-purine-β-D ribofuranoside-(3′→5′)-phosphorothioate), Sodium Salt] |  |  |  |  |  | 13.9 °C | 0.19 µM | 
4 | Nc1ncnc2c1ncn2[C@@H]1O[C@@H]2COP(=O)(S)O[C@H]3C(n4cnc5c(=O)[nH]ncc54)O[C@H](COP(=O)(S)O[C@H]2[C@H]1O)[C@H]3O (single isomer, unassigned) [Example 1.1, Cyclic (imidazopyridazinon-β-D-ribofuranoside-(2′→5′)-phosphorothioate-adenosine-(3′→5′)-phosphorothioate)] | 3080 nM | 1200 nM | 550 nM | 249 nM | 120 nM |  |  | 
5 | O=c1[nH]ncc2c1ncn2[C@@H]1O[C@@H]2COP(=O)(S)O[C@H]3[C@@H](O)[C@H](n4cnc5cncnc54)O[C@@H]3COP(=O)(S)O[C@@H]1[C@@H]2O (single isomer, unassigned) [Example 4.2, Cyclic (imidazopyridazinon-β-D-ribofuranoside-(2′→5′)-phosphorothioate-purine-β-D ribofuranoside-(3′→5′)-phosphorothioate), Sodium Salt] |  |  |  |  |  |  | 6.2 µM | 9.0 °C
6 | Nc1ncnc2c1ncn2[C@@H]1O[C@]23CO[C@@H]1[C@@H]2OP(=O)(S)OC[C@H]1O[C@@H](n2cnc4c(=O)[nH]ncc42)[C@H](OP(=O)(S)OC3)[C@@H]1O (single isomer, unassigned) [Example 3.1, Cyclic (imidazopyridazinon-β-D-ribofuranoside-(2′→5′)-phosphorothioate-LNA-adenine-(3′→5′)-phosphorothioate), Sodium Salt] | 2710 nM | 1280 nM | 595 nM | 260 nM | 111 nM |  | 0.17 µM | 17.0 °C
